Measurements as given in paper PMC1082716, “Blockade of chemokine-induced signalling inhibits CCR5-dependent HIV infection in vitro without blocking gp120/CCR5 interaction” (Retrovirology, 2005).
“Also recorded” adds a separate entry of the source.

Assays:
chemokine receptors = settings: ref [27]; cited from earlier work
CCR5 = experiment: Specific binding of biotinylated gp120:V3(BaL) peptide to THP-1 cells; settings: 100 μM biotinylated gp120:V3(BaL); various concentrations of Peptide 3; 10^6 cells in 100 μl, 4°C; non-specific binding (10 mM unlabelled peptide) subtracted
Experimental: The binding of gp120 to chemokine receptors is likely to involve sequences in the V3 loop of gp120 [28, 20]. We therefore synthesised peptide sequences from the V3 loop of the M-tropic BaL strain and the T-tropic IIIb strain and analysed the binding of these biotinylated peptides to the THP-1 and Jurkat cells. Specific (competable) binding of gp120:V3(BaL) to THP-1 cells was detected at 100 μM (Fig 1a). In contrast, specific binding of gp120:V3(BaL) to Jurkat cells was not detected even at concentrations up to 500 μM (Fig 1a). […]
Figure 1 Specific binding of gp120:V3 loop peptides to THP-1 and Jurkat cells. […] Specific binding is expressed as the absorbance in the absence of unlabelled peptide minus the absorbance in the presence of competitor (b) Binding of gp120:V3(IIIb)-biotin under the same conditions as in (a). […]
Cells (either Jurkat T-cells or THP-1 cells) were grown in RPMI 1640 medium supplemented with 10% fetal calf serum, 2 mM glutamine, 20 μM β-mercaptoethanol, 100 U/ml penicillin and 100 μg/ml streptomycin and maintained between 2 × 10^5 and 1 × 10^6 cells/ml. […] The plate was spun (3,000 × g; 3 mins) and 200 μl of the coloured product was transferred to an empty 96-well ELISA plate and the absorbance at 450 nm determined.

[1] = test system: CXCR4-dependent infection of Jurkat T cells; experiment: CXCR4-dependent HIV infection of Jurkat T cells (assay not specified); assay type: cell-based, HIV-1
Experimental: HIV infection of Jurkat T-cells using the laboratory-adapted T-tropic isolate IIIb was monitored using two different assays. Firstly, Jurkat T-cells in 96-well plates were pre-treated with either Peptide 3, vehicle (as a negative control) or SDF1α (as a positive control) for 4 hours, then exposed to HIV virus (10^6 TCID50) and pulsed at 2–3 day intervals with Peptide 3, SDF1α or medium alone as appropriate. After two weeks in culture, the extent of viral infection was assayed by measuring the reverse transcriptase activity in the supernatant, as a measure of viral replication in the culture In six separate experiments, Peptide 3 (100 μM) had no effect on virus replication following HIV exposure (Fig 3a), while SDF1α inhibited reverse transcriptase activity by an average of 75%. […]
HIV infection of Jurkat T-cells was also monitored by high sensitivity quantitative immunofluoresence detection of viral p24^gag expression. […] Expression of p24^gag was determined using quantitative immunofluoresence as previously described, except that the primary antibody was post-fixed to the section using paraformaldehyde to increase the sensitivity of the technique (see Methods). Viral infectivity was expressed as the number of cells stained for p24^gag expressed as a proportion of the total number of cells (detected using Hoechst 33342 nuclear dye). […]

[2] = test system: chemokine receptor internalisation; settings: ref [27]; cited from earlier work
Excerpt: Since BSCIs, such as Peptide 3, ...

For EICADPKQKWVQ [Peptide 3], the “Effect on binding of chemokine ligands to the receptors” value (chemokine receptors) is given as “do not block”, the “Effect on gp120 binding to CCR5 (gp120:V3(BaL) to THP-1 cells)” value (CCR5) is given as “no effect; also recorded: unaffected” and the “Effect on CXCR4-dependent HIV infection of Jurkat T cells” value [1] is given as “did not affect; also recorded: no effect”. For the same sequence, the “Effect on chemokine receptor internalisation induced by ligand binding” value [2] was “do not block”.
